Paper PMC7297381, “Potent, specific MEPicides for treatment of zoonotic staphylococci” (PLoS Pathogens, 2020)
Where two headings read alike, the source gives them in different places.

How the values were obtained:
S. schleiferi DXR enzyme = S. schleiferi DXR enzyme (Staphylococcus schleiferi, UniProt A0ABF7SXB4); experiment: S. schleiferi DXR enzyme activity and inhibition (NADPH oxidation at 340 nm); format: biochemical
Method: . The sequence was confirmed by Sanger sequencing and the plasmid was transformed into E. coli BL21(DE3) pLysS (Life Technologies). Gene expression was induced for 2 h with 1 mM isopropyl-β-D-thiogalactoside (IPTG) and cells were harvested by centrifugation at 4274 x g for 10 min at 4°C. The cell pellet was lysed by sonication in lysis buffer containing 25 mM Tris HCl (pH 7.5), 100 mM NaCl, 20 mM imidazole, 10% glycerol, 1 mM MgCl2, 1 mM dithiothreitol (DTT), 1 mg/mL lysozyme, 75 U benzonase and 1 Complete Mini EDTA-free protease inhibitor tablet (Roche Applied Science). The hexahistidine-tagged DXR protein was affinity purified from soluble lysate via nickel agarose beads (Gold Biotechnology). Bound protein was eluted in 300 mM imidazole, 25 mM Tris HCl (pH 7.5), 1 mM MgCl2 and 100 mM NaCl. Purified protein was dialyzed in buffer containing 10% glycerol without imidazole prior to analysis. The enzyme was frozen in liquid nitrogen and stored permanently at -80°C.
Oxidation of NADPH to NADP^+ as a result of substrate turnover was monitored at 340 nm in a POLARstar Omega microplate reader (BMG Labtech)[73]. […] Reactions were initiated by the addition of DOXP after 15 min incubation of the reaction mixture without DOXP at 37°C. Absorption at 340 nm was measured continuously for up to 45 min. For Km [DOXP] determination, DOXP concentrations between 0 and 2 mM were tested at 0.5 mM NADPH. The linear range of enzyme activity was determined by varying the DXR concentration at 1 mM DOXP and 1 mM NADPH. IC50 assays were performed using the standard reaction conditions with the respective amount of DXR inhibitor added to obtain the given final concentrations. Data points from at least three independent replicates were analyzed by nonlinear regression using GraphPad Prism software. Slopes of changing absorbance values were converted to (μM DOXP)(mg enzyme)^-1 s ^-1 using a NADPH standard curve (data not shown). For the determination of the inhibitory constant Ki [FSM] of DXR, enzyme activity over a range of DOXP substrate concentrations between 0 and 2 mM was measured for FSM between 0 mM to 4 mM. Data points from at least three independent replicates were analyzed as described above.

S. schleiferi [1] = experiment: Growth inhibition assay of Staphylococcus species (OD600, 20 h); conditions: read-out: S. schleiferi IC50
Method: (§1) Overnight cultures were diluted 1:200 in LB media and grown at 37°C until the mid-logarithmic phase (OD600 = 0.5–0.8). Cultures were diluted in a 96-well plate to 1 x 10^5 in 150 μL LB media and treated with inhibitors at concentrations ranging from 2 nM to 100 μM. Bacteria were grown at 37°C for 20 h with cyclic shaking at 700 rpm in a FLUOstar Omega microplate reader (BMG Labtech). Growth was assessed over 20 h by measuring the OD600 at 20 min increments. The half-maximal inhibitory concentration (IC50) values were determined during logarithmic growth using GraphPad Prism software. All experiments were performed at least in triplicate and data reported represent the mean ± SEM.

S. aureus = experiment: as above; conditions: Staphylococcus aureus, read-out: S. aureus IC50
Method: as §1

S. pseudintermedius = experiment: as above; conditions: read-out: S. pseudintermedius IC50
Method: as §1

Serratia marcescens = experiment: Growth inhibition assay for Gram-negative bacteria; format: cell-based; conditions: strain 137.01, mean ± SD
Salmonella typhimurium = experiment: Growth inhibition assay for Gram-negative bacteria; format: cell-based; conditions: Salmonella enterica, strain 04-018-0254, mean ± SD
HepG2 cells = system: HepG2 cells; set-up: method as in PMID 28827774, PMID 30192536; conditions: previous work ref [42], [53]; read-out: IC50 against HepG2 cells; cited from earlier work
S. schleiferi [2] = experiment: MIC by microtiter broth dilution, wild-type and FSM-resistant strains; conditions: strains 3408, 4494, 7376, 8400
Method: Minimum Inhibitory Concentration (MIC) assays were conducted by microtiter broth dilution in clear 96-well plates[78]. MEPicides were serially diluted in duplicate at concentrations ranging from 1.5 mM– 19.5 nM in 75 μL of LB broth. Bacteria cultured without drug were used as a positive control for growth. The plates were inoculated with 75 μL bacteria diluted to 1 x 10^5 CFU/mL in LB. Plates were incubated for 18–20 h while shaking at 200 RPM at 37°C. The plates were then visually inspected, and the MIC value was defined as the lowest concentration of MEPicide that prevented visual growth.

Shigella sonnei = experiment: microbe, parasite or virus in culture; format: cell-based; conditions: mean ± SD
Klebsiella pneumoniae = experiment: Growth inhibition assay for Gram-negative bacteria; format: cell-based
Escherichia coli = experiment: microbe, parasite or virus in culture; format: cell-based
[3] = system: Burkholderia thailandensis; experiment: microbe, parasite or virus in culture; format: cell-based; conditions: read-out: Burkholderia thailandensis IC50

S. schleiferi DXR enzyme, sequence (A0ABF7SXB4 entry or part of it): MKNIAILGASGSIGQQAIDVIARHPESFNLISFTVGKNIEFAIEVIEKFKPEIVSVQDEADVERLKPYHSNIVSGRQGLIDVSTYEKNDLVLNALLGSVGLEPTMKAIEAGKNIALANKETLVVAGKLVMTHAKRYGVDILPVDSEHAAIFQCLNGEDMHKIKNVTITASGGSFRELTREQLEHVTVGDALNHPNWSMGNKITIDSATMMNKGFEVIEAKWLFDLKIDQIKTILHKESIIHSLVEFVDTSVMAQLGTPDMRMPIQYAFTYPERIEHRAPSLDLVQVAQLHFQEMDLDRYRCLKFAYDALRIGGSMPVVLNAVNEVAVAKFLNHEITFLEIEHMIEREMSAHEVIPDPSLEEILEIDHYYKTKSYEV

SMILES	IC50 (S. schleiferi DXR enzyme) [µM]	IC50 (S. schleiferi [1]) [µM]	IC50 (S. aureus) [µM]	IC50 (S. pseudintermedius) [µM]	IC50 (Serratia marcescens) [µM]	IC50 (Salmonella typhimurium) [µM]	IC50 (HepG2 cells) [µM]	inhibition of purified recombinant S. schleiferi DXR in vitro (S. schleiferi DXR enzyme; prodrug, uncleaved)	IC50 (S. schleiferi DXR enzyme; purified recombinant enzyme, mean ± SEM, read-out: S. schleiferi DXR enzyme IC50) [µM]	sensitivity of FSM^R glpT mutant S. schleiferi strains (MIC fold change vs WT) (S. schleiferi [2])	IC50 (Shigella sonnei) [µM]	inhibition of growth of Klebsiella pneumoniae (Klebsiella pneumoniae)	IC50 (Klebsiella pneumoniae; Klebsiella pneumoniae, ATCC43816, ATCC 43816, mean ± SD) [µM]	inhibition of growth of E. coli (Escherichia coli)	IC50 (Escherichia coli; Escherichia coli, BW25113, mean ± SD) [µM]	IC50 [3] [µM]
CC(=O)N(O)C/C=C/P(=O)(O)O [Compound 1]	3.31 ± 1.02	55.5 ± 2.41	> 100	54.5 ± 1.14												
CC(=O)N(O)C/C=C/P(=O)(OCOC(=O)C(C)(C)C)OCOC(=O)C(C)(C)C [Compound 2]		0.1 ± 0.01	> 100	0.26 ± 0.03	> 100	> 100	> 100	poorly inhibit	> 100	remain sensitive	> 100	does not inhibit growth	> 100	does not inhibit growth	> 1000	> 100
O=CN(O)C/C=C/P(=O)(O)O [Compound 3]	0.41 ± 0.11	4.17 ± 0.47	> 100	4.31 ± 0.51			> 50			cross-resistant						
